Test results published in patent US20040034019A1, “Piperazine and piperidine derivatives” (priority 2002, published 2004).
Structures can show the parent of a compound that is named as a salt.

The compounds below were run on rat embryo ventral mesencephalic cells (assay: Neuroprotection assay (NMDA neuroexcitotoxic injury, high affinity 3H-dopamine uptake)). Conditions: embryonic day 15 rat VM cell culture, NMDA (100-400 μM) for 20 hours.
Type: cell-based, Sprague-Dawley rat
Source text: The neuroprotective activity of the compounds of this invention may be assayed using rat embryo ventral mesencephalic cells in culture which are subsequently exposed to the glutamate receptor agonist NMDA. This assay is described in detail in the example section.
The ventral mesencephalic region was dissected out of embryonic day 15 Sprague-Dawley rat embryos (Harlan), dissociated into single cell suspension by a combination of trypsinization and trituration (Costantini et al., Neurobiol Dis., pp. 97-106 (1998). Dissociated VM cells were plated into poly-L-ornithine-coated 96-well plates at a density of 85,000 cells/well in 100 uL of DMEM supplemented with 18% heat-inactivated horse serum, 0.24% glucose, 2 mM glutamine and 50 u/ml penicillin/streptomycin and incubated in a 5% CO2 incubator. After one day in culture (DIV1), the medium was replaced with 100 μL of a defined medium (DMEM supplemented with 1× N2 cocktail (Gibco-BRL), 0.12% glucose, 2 mM glutamine, and 50 units/ml penicillin/streptomycin) containing DMSO or various concentrations of the compounds of this invention. On DIV5, neuroexcitotoxic injury was induced by the addition of various concentrations of the glutamate receptor agonist NMDA (100-400 μM). Cultures were incubated with the neurotoxin for 20 hours and the effects of neurophilin compounds were assessed using high affinity ^3H-dopamine uptake according to a procedure published by Park and Mytilineou [Brain Res., 599, pp. 83-97 (1992)].

Compound | EC50
CCN1CCCC[C@H]1C(=O)N1C[C@@H]2C[C@H]1CN2Cc1ccccc1 (stereo in doubt) [Compound 24, 1-(5-benzyl-2,5-diaza-bicyclo[2.2.1]-hept-2-yl)-1-((S)-1-ethyl-piperidino-2-yl)-methanone] | > 500 nM
CCN1CCCC[C@H]1C(=O)N1CCN(c2ccccn2)CC1 [Compound 2] | > 500 nM
CN1CCC=C(C(=O)N2CCN(C(c3ccccc3)c3ccccc3)CC2)C1 [Compound 4] | > 500 nM
O=C([C@@H]1CCCN1Cc1ccccc1)N1CCN(C(c2ccccc2)c2ccccc2)CC1 [Compound 7] | < 100 nM
CN1CCC[C@H]1C(=O)N1CCN(C(c2ccccc2)c2ccccc2)CC1 [Compound 8] | > 500 nM
CN1CCC(C(=O)N2CCN(C(c3ccccc3)c3ccccc3)CC2)CC1 [Compound 11] | > 500 nM
CCN1CCCC[C@H]1C(=O)N1C[C@@H]2C[C@H]1CN2C(c1ccccc1)c1ccccc1 [Compound 17, 1-[(1S, 4S)-5-(1,1-Diphenylmethyl)-5-diazabicyclo[2.2.1]-hept-2-yl]-1-((S)-1-ethylpiperidin-2-yl)methanone] | 100 to 500 nM
O=C1C[C@@H](C(=O)N2CCC(Cc3ccccc3)CC2)N(Cc2ccccc2)C1 [Compound 29, (2S)-1-Benzyl-5-(4-benzylpiperidine-1-carbonyl)-pyrrolidin-3-one] | 100 to 500 nM
CON=C1C[C@@H](C(=O)N2CCC(Cc3ccccc3)CC2)N(Cc2ccccc2)C1 [Compound 31, (2S)-1-Benzyl-5-(4-benzylpiperidine-1-carbonyl)-pyrrolidin-3-one O-methyl-oxime] | 100 to 500 nM
CCN1CCCC[C@H]1C(=O)N1CCN(c2ccccc2)CC1 [Compound 39, ((2S)-1-Ethylpiperidin-2-yl)-(4-phenylpiperazin-1-yl)-methanone dihydrochloride] | < 100 nM
CCN1CCCC[C@H]1C(=O)N1CCN(C(c2ccccc2)c2ccc(F)cc2)CC1 (stereo partly drawn) [Compound 42, ((2S)-1-Ethylpiperidin-2-yl)-{4-[(4-fluorophenyl)phenylmethy]-piperazin-1-yl}-methanone dihydrochloride] | < 100 nM
O=C([C@@H]1CCCN1Cc1ccccc1)N1CCN(C(c2ccc(F)cc2)c2ccc(F)cc2)CC1 [Compound 51, ((2S)-1-Benzylpyrrolidin-2-yl)-{4-bis-(4-fluorophenyl)methyl]-piperazin-1-yl}-methanone dihydrochloride] | > 500 nM
C=CCN1CCCC[C@H]1C(=O)N1CCN(C(c2ccc(F)cc2)c2ccc(F)cc2)CC1 [Compound 64, ((2S)-1-Allylpiperidin-2-yl)-{4-[bis-(4-fluorophenyl)methyl]-piperazin-1-yl}-methanone] | > 500 nM
CCN1CCCC[C@H]1C(=O)N1CCN(CCCc2ccccc2)CC1 [Compound 70, ((2S)-1-Ethylpiperidin-2-yl)-[4-(3-phenylpropyl)-piperazin-1-yl]-methanone dihydrochloride] | 100 to 500 nM
CCN1CCCC[C@H]1C(=O)N1CCN(Cc2ccc(Cl)cc2)CC1 [Compound 72, [4-(4-Chlorobenzyl)-piperazin-1-yl]-((2S)-1-ethylpiperidin-2-yl)-methanone dihydrochloride] | > 500 nM
CCN1CCCC[C@H]1C(=O)N1CCN(Cc2cccs2)CC1 [Compound 73, ((2S)-1-Ethylpiperidin-2-yl)-(4-thiophen-2-ylmethylpiperazin-1-yl)-methanone dihydrochloride] | > 500 nM
CCN1CCCC[C@H]1CN1CCN(C(c2ccc(F)cc2)c2ccc(F)cc2)CC1 [Compound 102, 1-[Bis-(4-fluorophenyl)methyl)-4-((2S)-1-ethylpiperidin-2-ylmethyl)-piperazine.] | < 100 nM
CN1CSC(C)(C)[C@H]1C(=O)N1CCC(Cc2ccccc2)CC1 [Compound 200] | 100 to 500 nM
CCN1CC=C[C@H]1C(=O)N1CCN(C(c2ccc(F)cc2)c2ccc(F)cc2)CC1 [Compound 201] | > 500 nM
CCN1C[C@H]2C[C@@H]2C1C(=O)N1CCN(C(c2ccc(F)cc2)c2ccc(F)cc2)CC1 (some centres unmarked) [Compound 203] | 100 to 500 nM

Compound | EC50
CCN1CC[C@H](C)[C@H]1C(=O)N1CCN(C(c2ccc(F)cc2)c2ccc(F)cc2)CC1 [Compound 205] | < 100 nM
CN1[C@@H](C(=O)N2CCC(Cc3ccccc3)CC2)CC[C@H]1c1ccccc1 [Compound 206] | < 100 nM
CCN1C(C)CC[C@H]1C(=O)N1CCN(C(c2ccc(F)cc2)c2ccc(F)cc2)CC1 (some centres unmarked) [Compound 207] | 100 to 500 nM
CCN1CCC[C@]1(C)C(=O)N1CCN(C(c2ccc(F)cc2)c2ccc(F)cc2)CC1 [Compound 209] | 100 to 500 nM
CCN1CSC[C@H]1C(=O)N1CCN(C(c2ccc(F)cc2)c2ccc(F)cc2)CC1 [Compound 211] | > 500 nM
CCN1[C@@H](C(=O)N2CCN(C(c3ccc(F)cc3)c3ccc(F)cc3)CC2)CC[C@H]1c1ccccc1 [Compound 213] | > 500 nM
CCN1C[C@H](c2ccccc2)C[C@H]1C(=O)N1CCN(C(c2ccc(F)cc2)c2ccc(F)cc2)CC1 [Compound 215] | > 500 nM
CN1CSC(C)(C)[C@H]1C(=O)N1CCN(C(c2ccc(F)cc2)c2ccc(F)cc2)CC1 [Compound 216] | > 500 nM
CCN1CC[C@@H](c2ccccc2)[C@H]1C(=O)N1CCN(C(c2ccc(F)cc2)c2ccc(F)cc2)CC1 [Compound 217] | > 500 nM
O=C([C@@H]1C=CCN1Cc1ccccc1)N1CCC(Cc2ccccc2)CC1 [Compound 219] | 100 to 500 nM
O=C(C1[C@H]2C[C@@H]2CN1Cc1ccccc1)N1CCC(Cc2ccccc2)CC1 (some centres unmarked) [Compound 221] | < 100 nM
CN1[C@@H](C(=O)N2CCN(C(c3ccc(F)cc3)c3ccc(F)cc3)CC2)CC[C@H]1c1ccccc1 [Compound 222] | > 500 nM
C[C@H]1CCN(Cc2ccccc2)[C@@H]1C(=O)N1CCC(Cc2ccccc2)CC1 [Compound 223] | < 100 nM
CN1C[C@H](c2ccccc2)C[C@H]1C(=O)N1CCN(C(c2ccc(F)cc2)c2ccc(F)cc2)CC1 [Compound 224] | > 500 nM
CCN1[C@@H](c2ccccc2)CC[C@H]1C(=O)N1CCN(C(c2ccc(F)cc2)c2ccc(F)cc2)CC1 [Compound 225] | < 100 nM
CC1CC[C@@H](C(=O)N2CCC(Cc3ccccc3)CC2)N1Cc1ccccc1 (some centres unmarked) [Compound 227] | 100 to 500 nM
CN1CSC(C)(C)[C@@H]1C(=O)N1CCC(Cc2ccccc2)CC1 [Compound 228] | > 500 nM
C[C@@]1(C(=O)N2CCC(Cc3ccccc3)CC2)CCCN1Cc1ccccc1 [Compound 229] | > 500 nM
CN1CSC(C)(C)[C@@H]1C(=O)N1CCN(C(c2ccc(F)cc2)c2ccc(F)cc2)CC1 [Compound 230] | > 500 nM
O=C([C@H]1CC[C@@H](c2ccccc2)N1Cc1ccccc1)N1CCC(Cc2ccccc2)CC1 [Compound 231] | 100 to 500 nM

Compound | EC50
CCN1CC[C@H]1C(=O)N1CCC(Cc2ccccc2)CC1 [Compound 232] | 100 to 500 nM
O=C([C@@H]1CC[C@H](c2ccccc2)N1Cc1ccccc1)N1CCC(Cc2ccccc2)CC1 [Compound 233] | 100 to 500 nM
CCN1CC=C[C@H]1C(=O)N1CCC(Cc2ccccc2)CC1 [Compound 234] | > 500 nM
O=C([C@@H]1[C@H](c2ccccc2)CCN1Cc1ccccc1)N1CCC(Cc2ccccc2)CC1 [Compound 235] | > 500 nM
CCN1C[C@H]2C[C@@H]2C1C(=O)N1CCC(Cc2ccccc2)CC1 (some centres unmarked) [Compound 236] | 100 to 500 nM
O=C([C@@H]1C=CCN1Cc1ccccc1)N1CCN(C(c2ccc(F)cc2)c2ccc(F)cc2)CC1 [Compound 237] | > 500 nM
CCN1CC[C@H](C)[C@H]1C(=O)N1CCC(Cc2ccccc2)CC1 [Compound 238] | < 100 nM
O=C(C1[C@H]2C[C@@H]2CN1Cc1ccccc1)N1CCN(C(c2ccc(F)cc2)c2ccc(F)cc2)CC1 (some centres unmarked) [Compound 239] | > 500 nM
CCN1C(C)CC[C@H]1C(=O)N1CCC(Cc2ccccc2)CC1 (some centres unmarked) [Compound 240] | < 100 nM
C[C@H]1CCN(Cc2ccccc2)[C@@H]1C(=O)N1CCN(C(c2ccc(F)cc2)c2ccc(F)cc2)CC1 [Compound 241] | > 500 nM
CCN1CCC[C@]1(C)C(=O)N1CCC(Cc2ccccc2)CC1 [Compound 242] | < 100 nM
CC1CC[C@@H](C(=O)N2CCN(C(c3ccc(F)cc3)c3ccc(F)cc3)CC2)N1Cc1ccccc1 (some centres unmarked) [Compound 243] | > 500 nM
CCN1CSC[C@H]1C(=O)N1CCC(Cc2ccccc2)CC1 [Compound 244] | > 500 nM
C[C@@]1(C(=O)N2CCN(C(c3ccc(F)cc3)c3ccc(F)cc3)CC2)CCCN1Cc1ccccc1 [Compound 245] | 100 to 500 nM
CCN1[C@@H](C(=O)N2CCC(Cc3ccccc3)CC2)CC[C@H]1c1ccccc1 [Compound 246] | < 100 nM
O=C([C@H]1CC[C@@H](c2ccccc2)N1Cc1ccccc1)N1CCN(C(c2ccc(F)cc2)c2ccc(F)cc2)CC1 [Compound 247] | > 500 nM
CCN1[C@@H](c2ccccc2)CC[C@H]1C(=O)N1CCC(Cc2ccccc2)CC1 [Compound 248] | 100 to 500 nM
O=C([C@@H]1CC[C@H](c2ccccc2)N1Cc1ccccc1)N1CCN(C(c2ccc(F)cc2)c2ccc(F)cc2)CC1 [Compound 249] | > 500 nM
CCN1CC(c2ccccc2)C[C@H]1C(=O)N1CCC(Cc2ccccc2)CC1 (some centres unmarked) [Compound 250] | > 500 nM
